Data reported in article PMC6272185 (Molecules, 2015).
Converted amounts (≈) assume the structure as drawn. Where two headings read alike, the source gives them in different places.

Assays:
[1] = system: TNF-α production by LPS-stimulated RAW 264.7 macrophages; test: Inhibition of TNF-α production by LPS-stimulated macrophages (ELISA); format: cell-based, murine; details: for IC50: Mus musculus, read-out: IC50 TNF-α
M. bovis BCG = test: microbe, parasite or virus in culture; format: cell-based, Mycobacterium bovis BCG; details: Mycobacterium tuberculosis variant bovis BCG, BCG, 168 h; for MIC50: read-out: MIC50 M. bovis BCG; for MIC90: read-out: MIC90 M. bovis BCG
RAW 264.7 macrophages = test: Macrophage cytotoxicity, LDH release assay; format: cell-based, murine; details: LDH release
[2] = Macrophage cytotoxicity, LDH release assay; format: cell-based, murine; details: mouse, RAW 264.7 macrophages stimulated with LPS; LPS-stimulated RAW 264.7, LDH release; mean ± SD, n = 3
[3] = system: NO production by LPS-stimulated RAW 264.7 macrophages; test: Inhibition of NO production by LPS-stimulated macrophages (Griess); format: cell-based, murine; details: mean ± SD, n = 3
[4] = system: iNOS expression in RAW 264.7 macrophages; test: iNOS expression by western blot in LPS-stimulated macrophages; format: cell-based, murine; details: 20 µg/mL, LPS 1 µg/mL, 24 h
Protocol: (§1) RAW 264.7 macrophages were plated in Petri dishes (2 × 10^7 cells·mL^−1) and incubated for 24 h at 37 °C in 5% CO2 atmosphere. […] The resulted cellular monolayers were washed with PBS 1×, scraped and resuspended in PBS 1×, transferred and centrifuged to obtain cell pellets. The cells were lysed in buffer (10% SDS, 20% glycerol, 5% 2-mercaptoethanol, 2% bromophenol blue and 1 M Tris HCl, pH 6.8, containing protease inhibitors). Protein concentrations were estimated by Bradford method. For western blot analysis, cellular extract samples (60 µg) were submitted to 10% SDS–polyacrylamide gel electrophoresis under […] conditions and transferred to nitrocellulose membranes (Amersham Pharmacia Biotech, Uppsala, Sweden). After blocking with PBS-T (0.5% Tween-20) containing 2.5% (w/v) bovine serum albumin, the membranes were incubated with antibodies against iNOS (1:1000) and COX-2 (1:500) for 1 h at room temperature. After incubation period, the membranes were washed followed by treatment with horseradish peroxidase-conjugated secondary antibody. The resulting membranes were developed using diaminobenzidine/H2O2 as a substrate for peroxidase. In all electrophoresis experiments, a protein standard ladder (Full Range Rainbow-GE Healthcare, Piscataway, NJ, USA) was used to estimate proteins molecular size. Protein bands densitometric analysis was performed using ImageJ software for Windows (NIH, Bethesda, MD, USA). The value for stimulated condition (LPS- treated cells) was set as 1 and other conditions were recalculated correspondingly to allow ratio comparisons.

[5] = system: PGE2 production by LPS-stimulated RAW 264.7 macrophages; test: Inhibition of PGE2 production by LPS-stimulated macrophages (ELISA); format: cell-based, murine; details: Mus musculus, RAW264.7, 24 h, read-out: IC50 PGE2
Protocol: (§2) Murine RAW 264.7 macrophage cell line (American Type Culture Collection, Manassas, VA, USA), was cultured in Dulbecco’s modified Eagle’s medium (DMEM-F12) supplemented with 10% Fetal Bovine Serum (FBS) and gentamicin (50 µg/mL) in 5% CO2 atmosphere at 37 °C. For experiments, the cells were seeded in 96-well plates (1 × 10^5 cells/well) and incubated for 24 h at 37 °C. For macrophage stimulation, the cell cultures were treated with LPS (1 µg/mL) and incubated for additional 24 h in the presence or absence of the chalcone samples (samples 1–41) that were used at concentrations of 100, 20, 4 and 0.8 µg/mL. In some experiments, a nitric oxide (NO) inhibitor, L-NMMA (20 μg/mL), was used as a positive control of NO inhibition, and a non-steroidal anti-inflammatory drug indomethacin, known to inhibit production of prostaglandins, was used as a positive control of PGE2 inhibition.
(§3) The frozen culture supernatants samples were thawed and immediately analyzed using commercially available enzyme-linked immunosorbent assay (ELISA) kits to measure TNF-α, IL-1β (BD Biosciences) and PGE2 (R&D Systems, Minneapolis, MN, USA), according to the manufacturer’s instructions. Standard curves for each mediator were generated using reference cytokine concentrations supplied by the manufacturer. Nitric oxide (NO) generation was assessed by the Griess method to measure nitrites, which are stable breakdown NO products.

M. tuberculosis H37Rv = test: microbe, parasite or virus in culture; format: cell-based, Mycobacterium tuberculosis; details: Mycobacterium tuberculosis
[6] = system: RAW 264.7 macrophages infected with M. tuberculosis H37Rv; test: Toxicity for infected macrophages, LDH assay; format: cell-based, murine; details: Mus musculus, RAW264.7, 96 h; infected RAW 264.7, 4 days treatment; Figure 3D
Protocol: Cytotoxic effects of chalcone samples on RAW 264.7 cell viability in cultures stimulated with LPS were determined using the LDH (lactate dehydrogenase) release assay as previously described. Cytoplasmic enzyme LDH release into cell culture supernatants was detected using a commercial LDH kit (Doles, GO, Brazil). Cell death was expressed as percentage of LDH release, which was calculated using the following formula: percentage of LDH release = 100 × (test LDH release − spontaneous release)/(maximum release − spontaneous release). The maximum release was determined following dissolution of cell monolayers using 1% (vol/vol) Triton X-100. The spontaneous release was determined in supernatants from cultures incubated in the presence of LPS and DMSO, used as a solvent for chalcone samples.
(§4) RAW 264.7 macrophages were plated (1 × 10^5 cells/well) in antibiotic-free DMEM-F12 medium supplemented with 10% fetal bovine serum and incubated for 24 h. Prior to infection, mycobacterial suspensions were sonicated for 1 minute to disperse clumps and optical densities were adjusted to 0.1. The macrophage cultures were infected at a MOI of 1:1 (macrophage: bacterium). Phagocytosis was allowed to progress for 3 h. After 3 h, extracellular mycobacteria were removed by washing with PBS 1X and the infected cell monolayers were treated for 4 days with chalcone samples or rifampicin. Macrophage viability was monitored by LDH assay and was over 80% in all experiments. On day 4 after infection, cells were lysed cells with 1% saponin to release intracellular bacteria. Lysate aliquots were diluted 10-fold in PBS, plated in triplicates on 7H10 agar plates and incubated at 37 °C. After 21 days, total CFU were determined.

M. tuberculosis M299 = test: microbe, parasite or virus in culture; format: cell-based, Mycobacterium tuberculosis; details: for MIC50 / MIC90: Mycobacterium tuberculosis, M299, 120 h
[7] = system: IL-1β production by LPS-stimulated RAW 264.7 macrophages; test: Inhibition of IL-1β production by LPS-stimulated macrophages (ELISA); format: cell-based, murine; details: for IC50: Mus musculus, RAW264.7, 24 h, read-out: IC50 IL-1β
Protocol: as §2, §3

[8] = system: M. tuberculosis strain H37Rv in RAW 264.7 macrophages; test: Intracellular growth of M. tuberculosis H37Rv in infected macrophages (CFU); format: cell-based, Mycobacterium tuberculosis; details: infected RAW 264.7, MOI 1:1, 4 days, Figure 3C; for MIC50: Mycobacterium tuberculosis, H37RV, 96 h
Protocol: as §4

[9] = system: COX-2 expression in RAW 264.7 macrophages; test: COX-2 expression by western blot in LPS-stimulated macrophages; format: cell-based, murine; details: 20 µg/mL, LPS 1 µg/mL, 24 h
Protocol: as §1

[10] = RAW264.7, LPS (1 µg/mL)-stimulated RAW 264.7, 24 h, mean ± SD, n = 3
[11] = Mus musculus, RAW264.7, 24 h, LPS (1 µg/mL)-stimulated RAW 264.7, 24 h, read-out: IC50 NO
[12] = H37RV, 120 h, read-out: MIC50 M. tuberculosis H37Rv
[13] = Table 5, same values as M. tuberculosis H37Rv in Table 3, read-out: MIC50
[14] = Mus musculus, RAW264.7, 24 h, read-out: IC50 NO, LPS (1 µg/mL)-stimulated RAW 264.7, 24 h

COc1ccc(C(=O)/C=C/c2ccccc2Cl)cc1 [Chalcone 30]
IC50 [1, 10]: > 367 µM | MIC50 (M. bovis BCG): 37.8 ± 6.4 µM (≈ 10.3 µg/mL) | MIC90 (M. bovis BCG): 329 ± 3.6 µM (≈ 89.6 µg/mL) | cytotoxicity profile (RAW 264.7 macrophages): worst cytotoxicity profiles | IC50 [2]: 100 ± 5.1 µM | IC50 [3, 11]: 23.9 ± 4.8 µM

CN(C)c1ccc(/C=C/C(=O)c2ccccc2)cc1 [Chalcone 4]
inhibition of TNF-α ([1]; LPS-stimulated RAW 264.7): strongly inhibit | IC50 [1, 10]: 66.9 ± 4.3 µM | inhibition of iNOS expression [4]: almost completely inhibit | MIC50 (M. bovis BCG): 14.3 ± 5.8 µM (≈ 3.59 µg/mL) | MIC90 (M. bovis BCG): 137 ± 7.9 µM (≈ 34.5 µg/mL) | IC50 [5]: 61.2 ± 0.5 µM | MIC90 (M. tuberculosis H37Rv; H37RV, 120 h): 320 ± 4.8 µM (≈ 80.5 µg/mL) | MIC50 (M. tuberculosis H37Rv; [12]): 19.7 ± 1.9 µM (≈ 4.95 µg/mL) | MIC50 (M. tuberculosis H37Rv; [13]): 19.7 ± 1.9 µM (≈ 4.95 µg/mL) | IC50 [6]: 374 ± 6.3 µM | IC50 [2]: 348 ± 5.1 µM | MIC50 (M. tuberculosis M299): 20.1 ± 1 µM (≈ 5.05 µg/mL) | MIC90 (M. tuberculosis M299): 351.5 ± 1.8 µM (≈ 88.3 µg/mL) | IC50 ([3]; LPS (1 µg/mL)-stimulated RAW 264.7, 24 h, read-out: IC50 NO): 12 ± 2.2 µM | IC50 [3, 14]: < 21 µM | inhibition of IL-1β ([7]; LPS-stimulated RAW 264.7): potent inhibitors | IC50 [7]: 116 ± 5.5 µM | MIC50 [8]: 4.2 ± 0.3 µM (≈ 1.06 µg/mL) | MIC50 intracellular M. tuberculosis H37Rv [8]: 4.2 ± 0.3 µM (≈ 1.06 µg/mL)

O=C(/C=C/c1ccccc1)c1ccccc1Cl [Chalcone 31]
IC50 ([1]; RAW264.7, 24 h): > 412 µM | inhibition of iNOS expression [4]: almost completely inhibit | MIC50 (M. bovis BCG): 90.9 ± 5.5 µM (≈ 22.1 µg/mL) | MIC90 (M. bovis BCG): 330 ± 4.2 µM (≈ 80.1 µg/mL) | IC50 [5]: 10.2 ± 0.5 µM | IC50 [2]: 267 ± 4.5 µM | IC50 [7]: > 412 µM | abrogation of COX-2 expression [9]: most potent in abrogation

O=C(/C=C/c1ccccc1Cl)c1ccc(Br)cc1 [Chalcone 15]
IC50 ([1]; RAW264.7, 24 h): > 311 µM | MIC50 (M. bovis BCG): 13.8 ± 4.4 µM (≈ 4.44 µg/mL) | MIC90 (M. bovis BCG): 265 ± 4.5 µM (≈ 85.3 µg/mL) | IC50 [5]: 32.8 ± 3.7 µM | MIC90 (M. tuberculosis H37Rv; H37RV, 120 h): 288 ± 5.5 µM (≈ 92.6 µg/mL) | MIC50 (M. tuberculosis H37Rv; [12]): 17.1 ± 3.8 µM (≈ 5.5 µg/mL) | MIC50 (M. tuberculosis H37Rv; [13]): 17.1 ± 3.8 µM (≈ 5.5 µg/mL) | IC50 [6]: 214 ± 2.5 µM | IC50 [2]: 256 ± 3.8 µM | activity against M299 compared with H37Rv (M. tuberculosis M299): significantly less potent | MIC50 (M. tuberculosis M299): > 311 µM | MIC90 (M. tuberculosis M299): > 311 µM | IC50 [3, 14]: 36.7 µM | IC50 [7]: > 311 µM | MIC50 [8]: 242 ± 4.4 µM (≈ 77.9 µg/mL)

O=C(/C=C/c1ccc(F)cc1)c1ccc(Br)cc1 [Chalcone 9]
IC50 [1, 10]: > 328 µM | MIC50 (M. bovis BCG): 35.8 ± 3.9 µM (≈ 10.9 µg/mL) | MIC90 (M. bovis BCG): 309 ± 5.3 µM (≈ 94.2 µg/mL) | MIC90 (M. tuberculosis H37Rv; H37RV, 120 h): 252 ± 2.7 µM (≈ 76.9 µg/mL) | MIC50 (M. tuberculosis H37Rv; [12]): 24.4 ± 4.5 µM (≈ 7.45 µg/mL) | MIC50 (M. tuberculosis H37Rv; [13]): 24.4 ± 4.5 µM (≈ 7.45 µg/mL) | IC50 [6]: > 321 µM | IC50 [2]: > 328 µM | MIC50 (M. tuberculosis M299): 53.6 ± 1.9 µM (≈ 16.3 µg/mL) | MIC90 (M. tuberculosis M299): 313 ± 1.4 µM (≈ 95.5 µg/mL) | IC50 [3, 11]: > 328 µM | MIC50 [8]: 12 ± 1.1 µM (≈ 3.66 µg/mL)

O=C(/C=C/c1ccc(Cl)cc1)c1ccccc1Cl [Chalcone 33]
IC50 [1, 10]: 166 ± 5.2 µM | inhibition of iNOS expression [4]: almost completely inhibit | MIC50 (M. bovis BCG): 45.7 ± 5.4 µM (≈ 12.7 µg/mL) | MIC90 (M. bovis BCG): > 361 µM | IC50 [5]: 75.1 ± 3.5 µM | MIC90 (M. tuberculosis H37Rv; H37RV, 120 h): 356 ± 4.9 µM (≈ 98.6 µg/mL) | MIC50 (M. tuberculosis H37Rv; [12]): 36.9 ± 4.5 µM (≈ 10.2 µg/mL) | MIC50 (M. tuberculosis H37Rv; [13]): 36.9 ± 4.5 µM (≈ 10.2 µg/mL) | IC50 [6]: 271.7 ± 2.7 µM | IC50 [2]: 351 ± 5 µM | IC50 [7]: 287 ± 3.6 µM | MIC50 [8]: 248 ± 3.7 µM (≈ 68.7 µg/mL)
